The text below walks through data of patent US20070054887A1, “Methods for treating bladder dysfunction” (BioXell S.p.A, priority 2003, published 2007).

Data set [1] relates to hBC. As to the kind of experiment: androgen-stimulated hBC growth, 48 h incubation. The format is cell-based, human. Conditions: DHT 10 nM, Compound A 1 nM, finasteride 1 nM, FIG. 5. The source says: Results are expressed as percentage variation (mean±SEM) over their relative controls and derived from at least three different experiments obtained from three distinct hBC cell preparations. *P<0.05 (vs. control); °P<0.01 (vs. androgen-treated cells).

The subject of a further data set is desmin. As to the kind of experiment: desmin gene and protein expression in serum-starved hBC. The format is cell-based, human. Conditions: 10 nM. On the procedure: To detect desmin both at gene or protein level hBC cells were seeded in their growth medium onto 10 mm diameter culture dishes or onto sterile glass slides (about 10^4 cells/ml), for mRNA or immunocytochemical analysis, respectively. hBC cells at about 30% confluency, after overnight starvation in serum-free medium were incubated in phenol red- and serum-free medium containing 0.1% BSA with or without Compound A (10^−8 M) for 2, 4, 8 and 12 days, and the medium was changed every 2 days. Cells were harvested for mRNA or protein analysis by Taqman or Western blot analysis, respectively, and the slides were processed for specific protein immunocytochemical detection Quantitative analysis using real-time RT-PCR of desmin mRNA expression in serum-starved hBC treated with Compound A (10 nM, grey columns) was examined at different time points (2-12 days). Results are derived from five different experiments from three distinct hBC preparations and are expressed as fold increase compared to time zero. *P≦0.01 or °P=0.04 vs. control, open columns and are shown in FIG. 8.
Western blot detection of desmin in hBC was conducted as follows: thirty μg of proteins were separated by 10% SDS-PAGE, transferred onto nitrocellulose membrane, and probed with anti-desmin antibody (1:1000). A band of about 58 kDa was detected in each sample of hBC. […]

The test system of the next data set is bcl-2. The experiment in a line: Bcl-2 protein expression in hBC by immunocytochemistry. The format is cell-based, human. The note with it: Compound A 10 nM, alone and in the presence of KGF (10 ng/ml) or testosterone (10 nM); FIG. 6. On the procedure: After incubation with the indicated stimuli, slides were washed twice with PBS pH 7.4 and fixed in 3.7% paraformaldehyde in PBS for 15 min at room temperature, followed by permeabilization in 3.7% paraformaldehyde in PBS, containing 0.1% Triton X-100 for 15 min at room temperature. Anti-Bcl-2 mAb (1:40) diluted in PBS containing 2% BSA was added to the slides and incubated overnight at 4° C. Slides were washed three times (5 min) in PBS and incubated 45 min at room temperature with 2% BSA-PBS, containing the secondary antibody (dilution 1:1000). After three washes in PBS, the slides were examined with a phase contrast microscope (Nikon mocrophot-FX microscopes; Nikon, Kogaku, Tokyo, Japan). Slides lacking the primary antibody or stained with the corresponding non-immune serum served as controls.

The subject of data set [2] is hBC. The experiment in a line: DNA fragmentation / apoptotic index in hBC by in situ end labelling (ISEL). Conditions: Compound A 10 nM, alone and in the presence of KGF (10 ng/ml) or testosterone (10 nM); FIG. 7.
The next data set concerns vimentin. As to the kind of experiment: vimentin gene and protein expression in serum-starved hBC. The format is cell-based, human. The note with it: 10 nM, at any time point tested; FIG. 13. Here is the method:
Vimentin was detected (mRNA and protein) as per the method for desmin described in Example 1B. Vimentin is a fibroblastic cell marker. Quantitative analysis using real-time RT-PCR of vimentin mRNA expression in serum-starved hBC treated with Compound A (10 nM) was examined at different time points (2-12 days). Results are derived from five different experiments from three distinct hBC preparations and are expressed as fold increase compared to time zero. Control, open columns; Compound A, grey columns.
Western blot detection of vimentin in hBC was performed as follows: Thirty ug of proteins were separated by 10% SDS-PAGE, transferred onto nitrocellulose membrane, and probed with anti-vimentin antibody (1:1000). A band of about 61 kDa was detected in each sample of hBC. […] Results are representative of three independent experiments performed using separate hBC preparations.
Immunocytochemical detection of vimentin in hBC was conducted as follows: Cells were seeded onto sterile glasses, treated with Compound A (10 nM) and processed at the indicated time points with an anti-vimentin antibody (1:1000). […] Quantification of three separate experiments from three distinct preparations of hBC is shown in FIG. 15 (control, open columns; Compound A, grey columns). […]

In a further data set the test system is human bladder cells. The experiment in a line: inhibition of basal human bladder cell growth. In kind it is cell-based. Conditions: Homo sapiens.
Data set [3] is described as follows: maximum tolerated dose (MTD) in rats. In kind it is in vivo. Conditions: rat, in vivo, read-out: MTD. The source says:
The maximum tolerated dose (MTD) in rats is also listed for each compound.

In general, IC50 refers to the concentration needed to halve the response being measured. One may read the MTD as the largest dose that counted as tolerated. For `C=C1/C(=C\C=C2/CCC[C@]3(C)C([C@@H](C)C/C=C/C(O)(CC)CC)=CC[C@@H]23)C[C@@H](O)C[C@@H]1F` [Compound A, 1-alpha-fluoro-25-hydroxy-16,23E-diene-26,27-bishomo-20-epi-cholecalciferol], the “hBC proliferation stimulated by the androgen DHT” value with hBC [1] was “inhibits”. In addition, the “desmin protein expression (Western blot)” value with desmin (at any time point tested (2-12 days), FIG. 9) is on record as “decreased”. Moreover, the “serum starvation-induced progressive increase in desmin expression” value with desmin (mRNA and protein, FIGS. 8-11) is “almost completely counteracted”. The “bcl-2 expression (percentage of bcl-2 stained cells)” value with bcl-2 is given as “significantly inhibits”. For the same compound, the apoptotic index result with hBC [2] was “significantly increases”. Further, the “vimentin protein expression (Western blot)” value in the data set with vimentin is given as “failed to affect”. This compound gave an IC50 with human bladder cells of 6.31 pM. For the same compound, the MTD in data set [3] came to 0.1 mg/kg.
